Assay results published in publication PMC3422259, “Additive Mixture Effects of Estrogenic Chemicals in Human Cell-Based Assays Can Be Influenced by Inclusion of Chemicals with Differing Effect Profiles” (PLoS ONE, 2012).
Entries after “also recorded” stand apart in the source; their conditions may differ. Like-named read-outs stand apart in the source and are kept apart here.

Experiments:
yeast estrogen screen = test system: yeast estrogen screen; set-up: method as in PMID 19499261; conditions: cited from earlier work
MCF-7 cells [1] = assay: Modulation studies (ESCREEN only): effect of potential modulators on the response evoked by a reference mixture of estrogens (REFmix); assay type: cell-based, human; conditions: for Modulation of the REFmix effect (in words) / Concentration at which complete suppression (full inhibition) of REFmix effect was reached: ESCREEN; for Observed modulation: ESCREEN response to REFmix (Mixture 3d, ca. 50% effect), screening, one experiment; for Concentration at which complete suppression (full inhibition) of REFmix effect was reached: individual modulator screening
Excerpt: Modulation studies comprised screening of individual modulators in low power experiments accompanied by parallel testing of an equimolar mixture of all modulators. This combination of low power screening and mixture testing provides the opportunity to assess a high number of chemicals (16 in this case) without a prohibitive amount of experimental effort. In this case the effects of 16 modulators could be evaluated using a total of 19 experimental plates (16 for screening and 3 for mixture testing).
To normalize for small changes in the absolute value of the positive control and the control response to the selected REFmix concentration, the response evoked by the REFmix control on each plate was defined as the 50% effect and all modulator study results are normalized to that value.
A mixture of modulators (MODmix) was also tested and was composed with a fixed ratio of equimolar concentrations, since the activity of each modulator was not known at the time of designing the mixture.
In these modulator studies, we examined 16 single chemicals (listed in Table 7) and an equimolar mixture of all 16 components for their ability to modulate the effects of a reference mixture (REFmix) which contained 14 food additives and contaminants (Table 1, Mixture 3d). […] Single chemicals were tested individually in single experiments (screening) and then a mixture composed using a fixed ratio of equal molarities was subjected to repeated testing.
Figure 5 Results of modulation studies. […] Experimental results are shown as grey circles representing each replicate (duplicate testing within the assay) and obtained in three independent (A) or one (B–Q) experiment (s). Experimental results were normalized by setting the value observed for the REFmix alone, the concentration of which was selected to evoke a […] of ca. 50%, to 0.5. The positive control values (black circles, eight replicates per experimental plate, 25 nM estradiol) are indicated adjacent to the y-axis. […] A black line indicates a LOESS spline fit to the data (A–Q) and a grey line indicates linear regression fit to the data for individual modulators (B–Q). A vertical dotted line is drawn at a mixture concentration of 1.6 µM (A) or at the concentration of each modulator present at that mixture concentration (0.1 uM, B–Q). Visual inspection of the individual modulator results (B–Q) was used to identify possible modulation, i.e. when the experimental data appears to deviate from the linear regression, or when the linear regression is not horizontal, and when the magnitude of the modulation is outside the variation expected in the assay.

T47D-KBluc cells = assay: cells; conditions: ERLUX
Procedure: T47D-KBluc cells were obtained from the ATCC and the protocol established by the depositing authors was followed. Cells were routinely grown in RPMI media (with 10% foetal calf serum (FCS)). For seven days prior to experiments, cells were maintained in low estrogen conditions by the use of pre-assay media (RPMI, 10% charcoal-dextran stripped FCS, no antibiotics). For experiments, cells were seeded in white polystyrene 96 well plates at a density of 10,000 cells/well and allowed to attach for 24 hours before removal of media, and application of test chemicals. Test chemicals were dissolved in ethanol to give stock solutions of millimolar concentrations. Test and control solutions were obtained by dilution of ethanolic stocks in dosing media (phenol red-free RPMI, 5% charcoal-dextran stripped FCS, no antibiotics), and in all cases the final concentration of ethanol was 0.5%. The positive control was 1 nM estradiol. Positive and vehicle controls were run as eight replicate wells per plate, and compounds were tested in a dilution series comprising eight concentrations, each concentration tested in triplicate. As recommended by Wilson et al. two additional controls were also included on each plate: 1) vehicle control plus an antiestrogen, ICI 182,780 (1 µM), and 2) positive control plus ICI 182,780 (1 µM). […] A crude measure of toxicity was provided by comparing values for treatments that were not positive, with the value of the vehicle control. […] 24 hours after application of test and control solutions, a volume of Steady-Glo assay reagent (Promega) equal to the volume of culture media was added and plates were incubated for ten minutes, with shaking, to allow for cell lysis. Plates were then loaded into a plate reader (FLUOstar Optima, BMG Labtech) and incubated for a further ten minutes in the dark, followed by measurement of luminescence. To reduce variation, the temperature of the plate reader chamber was maintained at 27°C throughout.
(§1) Experiments were performed on different days meaning that results for different dilution series and different batches of the test chemicals were obtained on different days. Each single chemical was tested in three or more independent experiments. Use of normalisation meant that data from different experiments could be reliably combined and compared, as discussed previously. Data was expressed relative to the positive control, rather than as fold change from the vehicle response, for two reasons.
Effect concentrations (ECx) were defined relative to the effects of the estradiol concentration used as the positive control, for example EC50 is the concentration producing an effect of 50% of the positive control (estradiol, 1 nM (ERLUX) or 25 nM (ESCREEN)).
(§2) Results from regression analysis for each test chemicals were used to predict the CA effect for fixed-ratio mixtures designed on 1) equi-effective concentrations (balanced design), 2) possible human serum levels (non-balanced design). The original mathematical formulation of CA that defines for a mixture composed of n components with concentration c1 of the first component, c2 of the second component, and cn for the n-th component a combination effect X is [drawing 1] (1) Here, ECX1, ECX1 …, ECXn are the concentrations of the individual components that on their own produce the same effect X as the mixture, [15] The quotients cn/ECXn are called toxic units and scale all compounds in the mixture relative to their toxicity. They can be interpreted as the contribution of the compound to the total mixture concentration that is expected to produce the mixture effect X. According to equation 1, a mixture effect for a pre-defined effect level X is described only implicitly.

MCF-7 cells [2] = assay: Estrogenicity assay, mitogenic endpoint (ESCREEN); conditions: for Signs of estrogenicity (in words): chemical screened as potential modulator, tested alone; for Signs of estrogenicity: Active at concentration: ‘Active’ = positive signal clearly distinguishable from assay variability and noise
Procedure: The ESCREEN assay was performed using cloned MCF-7 cells (described in [6], gifted from A. Soto, Boston) and the established ESCREEN method was followed using an adapted 96-well format. Cells were cultured in DMEM (5% FCS). For experiments, cells were seeded in clear polystyrene 96 well plates at a density of 2,500 cells/well and allowed to attach for 24 hours before washing with rinse media (phenol red-free DMEM, no supplements). […] Test chemicals were dissolved in ethanol to give stock solutions of millimolar concentrations. Test and control solutions were diluted prior to application in dosing media (phenol red free DMEM, 10% charcoal-dextran stripped FCS). The final concentration of ethanol was 0.5% in test and control wells. […] At all stages, media removal from cells was carried out gently and in a controlled fashion by use of an electronic multichannel pipette set to the lowest speed possible. Controls were run as eight replicate wells per plate and compounds were tested in a dilution series comprising eight concentrations, each concentration tested in two replicate wells per plate. The plate layout was designed to reduce variation due to evaporation and spreading of test chemicals, and had been previously optimised in the laboratory. After application of test solutions, plates were incubated for 120 hours before fixation with 10% trichloroacetic acid and sulforhodamine B (SRB) staining to measure protein and allow the indirect quantification of cell number.
as §1
as §2, with “implicitly. However, if the individual concentrations ci are expressed as relative fractions pi to the total mixture concentration ECxMix, then equation 1 can be re-arranged to [drawing 2] (2) which allows the direct calculation of the mixture concentration that is expected to produce the mixture effect X. To form a prediction curve, equation 2 is iterated through for various effect levels resulting in sets of effects and their associated predicted mixture concentration which are then plotted to produce a graph of the effect prediction.” for “implicitly.”
Both equations 1 and 2 require knowledge of the concentration of each mixture component that on its own produces the effect magnitude under consideration. For this reason, these equations cannot be used for predicting mixture effects that exceed the maximal effect of the least efficacious component, because those effect concentrations cannot be defined.

SMILES: Nc1ccc([N+](=O)[O-])cc1[N+](=O)[O-] [2,4-dinitroaniline]
- Modulation of the estrogenicity of estradiol or a ternary mixture of estradiol, estrone and estriol (in words) (yeast estrogen screen): negative modulation

SMILES: c1ccc2c(c1)cc1ccc3cccc4ccc2c1c34 [Benzo [a] pyrene]
- Modulation of the REFmix effect (in words) (MCF-7 cells [1]): clear negative modulation
- Observed modulation (MCF-7 cells [1]): Clear negative
- Concentration at which complete suppression (full inhibition) of REFmix effect was reached (MCF-7 cells [1]): ≤ 1 µM
- Concentration at which complete suppression (full inhibition) of REFmix effect was reached (MCF-7 cells [1]; listed as BaP): around 1 µM
- EC10 (T47D-KBluc cells; concentration producing 10% effect relative to positive control 1 nM estradiol, 24 hours): 862 nM
- EC25 (T47D-KBluc cells; concentration producing 25% effect relative to positive control 1 nM estradiol, 24 hours): 2060 nM
- Concentration Response Function θ^∧ max (T47D-KBluc cells; estimated maximal model asymptote, effect relative to positive control (1 nM estradiol)): 0.90
- Signs of estrogenicity (in words) (MCF-7 cells [2]; ESCREEN): None
- Estrogenicity when tested alone (in words) (MCF-7 cells [2]; ESCREEN, listed as BaP): not active; also recorded: not when tested alone

SMILES: CCCCOC(=O)c1ccccc1C(=O)OCCCC [DBP, Di butyl phthalate]
- Modulation of the REFmix effect (in words) (MCF-7 cells [1]): possible negative modulation
- Observed modulation (MCF-7 cells [1]): Possible negative
- Estrogenicity when tested alone (in words) (T47D-KBluc cells): no estrogenicity
- Signs of toxicity (in words) (MCF-7 cells [2]): None
- Signs of estrogenicity: Active at concentration (MCF-7 cells [2]; ESCREEN): Active at 10 µM or higher

SMILES: CCCCC(CC)COC(=O)c1ccccc1C(=O)OCC(CC)CCCC (centres unmarked) [DEHP, Di ethyl hexyl phthalate]
- Modulation of the REFmix effect (in words) (MCF-7 cells [1]): no indication of negative modulation
- Observed modulation (MCF-7 cells [1]): None
- Estrogenicity when tested alone (in words) (T47D-KBluc cells): no estrogenicity
- Concentration at which estrogenicity occurred when tested alone (MCF-7 cells [2]; ESCREEN): greater than 1 µM
- Concentration at which toxicity began (MCF-7 cells [2]; ESCREEN, before a full estrogenic response was reached): 5 µM
- Signs of toxicity at the highest concentrations (in words) (MCF-7 cells [2]; ESCREEN, highest concentrations shown in Figure 2, may indicate toxicity): decline in response
- Signs of estrogenicity: Active at concentration (MCF-7 cells [2]; ESCREEN): Active at 1 µM or higher

SMILES: CCOC(=O)c1ccccc1C(=O)OCC [DEP, Di ethyl phthalate]
- Modulation of the REFmix effect (in words) (MCF-7 cells [1]): no indication of negative modulation
- Observed modulation (MCF-7 cells [1]): None
- Estrogenicity when tested alone (in words) (T47D-KBluc cells): estrogenic
- Concentration at which estrogenic activity seen (T47D-KBluc cells; and above): 0.1 to 1 µM
- Signs of toxicity (in words) (MCF-7 cells [2]; ESCREEN): None
- Signs of estrogenicity: Active at concentration (MCF-7 cells [2]; ESCREEN): Active at 10 µM or higher

SMILES: C[S+](C)[O-] [DMSO]
- Modulation of the estrogenicity of estradiol or a ternary mixture of estradiol, estrone and estriol (in words) (yeast estrogen screen): no effect

SMILES: [Cl][Hg][Cl] [HgCl2, Mercury chloride]
- Modulation of the REFmix effect (in words) (MCF-7 cells [1]): no indication of negative modulation
- Observed modulation (MCF-7 cells [1]): None
- Signs of estrogenicity (in words) (MCF-7 cells [2]; ESCREEN): None
- Signs of toxicity: Possible toxicity at concentration (MCF-7 cells [2]; ESCREEN, decrease in value for treated wells below vehicle controls, assignment not certain): Possible toxicity at 10 µM and greater
- Modulation of the estrogenicity of estradiol or a ternary mixture of estradiol, estrone and estriol (in words) (yeast estrogen screen): no effect

SMILES: C[C@@H]1C[C@@H]([C@H](O)CC2CC(=O)NC(=O)C2)C(=O)[C@@H](C)C1 [cycloheximide, reference compound]
- Modulation of the estrogenicity of estradiol or a ternary mixture of estradiol, estrone and estriol (in words) (yeast estrogen screen): negative modulation
